8 compounds from ChEMBL document CHEMBL1127594, “Inhibitors of acyl-CoA:cholesterol O-acyltransferase. 11. Structure-activity relationships of several series of compounds derived from N-(chlorocarbonyl) isocyanate” (J Med Chem, 1994) can be followed below.

Test [1] deals with O-acyltransferase (Oryctolagus cuniculus, UniProt G1SFD9). Briefly: In vitro Acyl coenzyme A:cholesterol acyltransferase inhibitory activity (IAI) was determined by measuring the incorporation of [1-14C]oleolyl-CoA into cholesterol esters by intestinal microsomes isolated from cholesterol-fed rabbits. The arrangement: species or system Intestine.
O-acyltransferase, sequence (G1SFD9 1-524): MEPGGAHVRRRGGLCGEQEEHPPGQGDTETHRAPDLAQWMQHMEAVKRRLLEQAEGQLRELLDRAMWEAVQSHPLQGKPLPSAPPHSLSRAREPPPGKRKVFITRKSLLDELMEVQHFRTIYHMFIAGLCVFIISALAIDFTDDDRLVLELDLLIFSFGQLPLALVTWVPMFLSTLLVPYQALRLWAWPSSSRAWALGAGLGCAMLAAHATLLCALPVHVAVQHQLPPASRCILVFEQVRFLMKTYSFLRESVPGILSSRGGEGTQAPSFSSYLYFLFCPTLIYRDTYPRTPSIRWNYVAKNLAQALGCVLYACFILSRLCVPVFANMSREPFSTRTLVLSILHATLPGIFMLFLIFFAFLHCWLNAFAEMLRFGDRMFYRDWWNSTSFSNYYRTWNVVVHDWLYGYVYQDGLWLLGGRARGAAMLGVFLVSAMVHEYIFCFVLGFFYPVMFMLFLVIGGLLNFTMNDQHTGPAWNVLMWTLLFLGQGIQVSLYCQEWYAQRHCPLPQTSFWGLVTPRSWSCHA
The subject of test [2] is Rattus norvegicus. Briefly: In vivo hypocholesterolemic activity was measured in an acute, cholesterol-fed rat model (APCC) at 30 mg/kg dose. In kind it is functional.

Structures are written as SMILES. Bounds are passed on as bounds.

By IC50 is commonly meant the concentration at which inhibition is half-maximal. Compound `CCCCCCCCCCCCC(C)SC(=O)NC(=O)Oc1c(C(C)C)cccc1C(C)C` (racemic) had an IC50 in test [1] of 8 nM. For the same compound, the “Delta TC” value in test [2] is listed as below -60%.

`CCCCCCCC(C)OC(=O)NC(=O)Oc1c(C(C)C)cccc1C(C)C` (racemic) yielded an IC50 in test [1] of 97 nM. Also, the “Delta TC” value in test [2] is below -56%.

In the case of `CCCCCCCCC(C)OC(=O)NC(=O)Oc1c(C(C)C)cccc1C(C)C` (racemic), the IC50 in test [1] amounted to 270 nM. Also, the “Delta TC” value in test [2] was below -54%.

Turning to `CCCCCCCCCCC(C)OC(=O)NC(=O)Oc1c(C(C)C)cccc1C(C)C` (racemic), the IC50 in test [1] stood at 49 nM. For the same compound, the “Delta TC” value in test [2] is reported as below -66%.

In test [1], `CCCCCCCCCCCCCCC(C)OC(=O)NC(=O)Oc1c(C(C)C)cccc1C(C)C` (racemic) had an IC50 of 58 nM. Further, the “Delta TC” value in test [2] is on record as below -43%.

Take `CCCCCC(C)OC(=O)NC(=O)Oc1c(C(C)C)cccc1C(C)C` (racemic): in test [1], the midpoint of inhibition, the IC50, lay at 102 nM. Also, the “Delta TC” value in test [2] is given as below -60%.

The compound `CCCCCCCCCCCCC(C)OC(=O)NC(=O)Oc1c(F)cccc1F` (racemic) came in with an IC50 in test [1] above 1000 nM. Besides, the “Delta TC” value in test [2] was below -35%.

With `CCCCCCCCCCCCC(C)OC(=O)N(C)C(=O)Oc1c(C(C)C)cccc1C(C)C` (racemic), the IC50 in test [1] is above 1000 nM. For the same compound, in test [2], the “Delta TC” value is listed as -8%.
